Source: US8741897B2, “Glucocorticoid mimetics, methods of making them, pharmaceutical compositions and uses thereof” (Boehringer Ingelheim Pharmaceuticals Inc., priority 2003, dated 2014)

Experiments:
[1] = system: glucocorticoid receptor function; assay: one or more of the above assays (GR binding and glucocorticoid receptor cell assays: aromatase, IL-6, TAT, MMTV-Luc, IL-8, ICAM-Luc); assay type: cell-based; settings: assay not specified per compound
[2] = system: Human osteosarcoma MG-63 cells; assay: Inhibition of osteocalcin production from osteoblast cell line MG-63; assay type: cell-based; settings: Vitamin D 10 nM, 48 hours
Method: 7. Inhibition of Osteocalcin Production from Osteoblast Cell Line MG-63
The next day, wells are replaced with fresh media. Cells are treated with Vitamin D (Sigma, Cat. No. D1530) to a final concentration of 10 nM, and with the test compounds in concentrations of 10^−6 M to 10^−9 M, in a total volume of 200 μL per well. Samples are done in duplicates. […] Positive control wells receive Vitamin D only, without compounds, and represent maximum (100%) amount of osteocalcin production. Plates are incubated at 37° C. incubator for 48 hours and supernatants are harvested at the end of incubation. Amounts of osteocalcin in the supernatants are determined by the Glype osteocalcin ELISA kit (Zymed, Cat. No. 99-0054) according to manufacture's protocol. Inhibition of osteocalcin by test compounds is expressed in percentage relative to positive controls. IC50 values of the test compounds are derived by non-lineal curve fitting.

[3] = biological target: T1, human glucocorticoid receptor (GR) complex (Homo sapiens, UniProt P04150); assay: Glucocorticoid receptor competitive binding assay (fluorescence polarization, TAMRA-labeled dexamethasone probe); settings: compounds of Formula (IA)
T1 construct: made in house; host or cells: insect expression system (baculovirus lysate)
T1 sequence (P04150 1-777): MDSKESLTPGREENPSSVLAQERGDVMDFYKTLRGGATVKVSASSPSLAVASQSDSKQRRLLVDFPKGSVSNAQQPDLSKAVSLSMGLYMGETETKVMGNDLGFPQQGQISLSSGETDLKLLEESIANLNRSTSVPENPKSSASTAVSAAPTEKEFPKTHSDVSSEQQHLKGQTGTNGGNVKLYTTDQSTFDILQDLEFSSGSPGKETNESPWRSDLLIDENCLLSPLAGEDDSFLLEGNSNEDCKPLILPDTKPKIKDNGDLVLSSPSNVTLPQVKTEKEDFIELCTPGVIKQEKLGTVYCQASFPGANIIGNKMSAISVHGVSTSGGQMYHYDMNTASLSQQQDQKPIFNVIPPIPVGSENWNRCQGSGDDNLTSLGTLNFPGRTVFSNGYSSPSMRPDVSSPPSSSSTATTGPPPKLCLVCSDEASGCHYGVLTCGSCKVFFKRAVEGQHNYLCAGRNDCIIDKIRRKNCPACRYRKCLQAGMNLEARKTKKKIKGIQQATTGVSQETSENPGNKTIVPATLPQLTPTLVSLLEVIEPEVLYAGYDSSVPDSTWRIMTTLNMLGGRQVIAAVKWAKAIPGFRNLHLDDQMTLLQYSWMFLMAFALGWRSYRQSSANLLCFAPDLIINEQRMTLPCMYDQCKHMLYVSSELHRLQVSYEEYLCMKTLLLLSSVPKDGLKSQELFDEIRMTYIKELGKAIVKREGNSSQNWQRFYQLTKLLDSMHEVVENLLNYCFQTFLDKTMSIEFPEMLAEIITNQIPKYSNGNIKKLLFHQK
Summary of the method: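 Fluorescence-polarization competition against 15 nM TAMRA-dexamethasone (stock added to the mix) for human GR complex from baculovirus lysate diluted 1:170. Buffer: 10 mM TES, 50 mM KCl, 20 mM Na2MoO4, 1.5 mM EDTA, 0.04% CHAPS, 10% glycerol, 1 mM DTT, pH 7.4. IC50 from 4-parameter logistic fit.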

activity in the GR binding assay [3]	Structure (SMILES)	activity as agonists of the glucocorticoid receptor function in one or more of the above assays [1]	inhibit the vitamin D stimulated production of osteocalcin [2]
–	Cc1c(CC(O)(CC(C)(C)c2cc(-c3cncnc3)cc3c2OCC3)C(F)(F)F)[nH]c2cnccc12 (stereo not shown) [1,1,1-Trifluoro-4-methyl-2-(3-methyl-1H-pyrrolo[2,3-c]pyridin-2-ylmethyl)-4-(5-pyrimidin-5-yl-2,3-dihydrobenzofuran-7-yl)pentan-2-ol]	potent agonists	inhibit
–	CC(C)(CC(O)(Cc1cc2cnccc2[nH]1)C(F)(F)F)c1cccc(Cl)c1 (stereo not shown) [4-(3-Chlorophenyl)-1,1,1-trifluoro-4-methyl-2-(1H-pyrrolo[3,2-c]pyridin-2-ylmethyl)pentan-2-ol]	potent agonists	inhibit
–	Cc1ccc(F)cc1C(C)(C)CC(O)(Cc1cc2cc(N3CCOCC3)ncc2[nH]1)C(F)(F)F (stereo not shown) [1,1,1-Trifluoro-4-(5-fluoro-2-methylphenyl)-4-methyl-2-(5-morpholin-4-yl-1H-pyrrolo[2,3-c]pyridin-2-ylmethyl)pentan-2-ol]	–	inhibit
–	COc1ccc(-c2cccnc2)cc1C(C)(C)CC(O)(Cc1cc2cc(N3CCCCC3)ncc2[nH]1)C(F)(F)F (stereo not shown) [1,1,1-Trifluoro-4-(2-methoxy-5-pyridin-3-ylphenyl)-4-methyl-2-(5-piperidin-1-yl-1H-pyrrolo[2,3-c]pyridin-2-ylmethyl)pentan-2-ol]	potent agonists	inhibit
–	CN(C)c1cc2cc(CC(O)(CC(C)(C)c3cc(F)ccc3O)C(F)(F)F)[nH]c2cn1 (stereo not shown) [2-[3-(5-Dimethylamino-1H-pyrrolo[2,3-c]pyridin-2-ylmethyl)-4,4,4-trifluoro-3-hydroxy-1,1-dimethylbutyl]-4-fluorophenol]	potent agonists	inhibit
–	Cc1ccc(F)cc1C(C)(C)CC(O)(Cc1cc2cc(-c3ccccc3)ncc2[nH]1)C(F)(F)F (stereo not shown) [1,1,1-Trifluoro-4-(5-fluoro-2-methylphenyl)-4-methyl-2-(5-phenyl-1H-pyrrolo[2,3-c]pyridin-2-ylmethyl)pentan-2-ol]	potent agonists	inhibit
–	CC(C)(CC(O)(Cc1cc2cc(-c3cccnc3)ccc2[nH]1)C(F)(F)F)c1cc(F)cc2c1OCC2 (stereo not shown)	–	inhibit
–	Cc1ccc(F)cc1C(C)(C)CC(O)(Cc1cc2cc(N3CCCCC3)ncc2[nH]1)C(F)(F)F (stereo not shown) [1,1,1-Trifluoro-4-(5-fluoro-2-methylphenyl)-4-methyl-2-(5-piperidin-1-yl-1H-pyrrolo[2,3-c]pyridin-2-ylmethyl)pentan-2-ol]	–	inhibit
potent activity	CC(C)(CC(O)(Cc1cc2cnccc2[nH]1)C(F)(F)F)c1cc(Br)cc2c1OCC2 (stereo not shown) [4-(5-Bromo-2,3-dihydrobenzofuran-7-yl)-1,1,1-trifluoro-4-methyl-2-(1H-pyrrolo[3,2-c]pyridin-2-ylmethyl)pentan-2-ol]	potent agonists	–
potent activity	CC(C)(CC(O)(Cc1ccnc2ccccc12)C(F)(F)F)c1cccc(-c2ccccc2)c1 (stereo not shown) [4-Biphenyl-3-yl-1,1,1-trifluoro-4-methyl-2-quinolin-4-ylmethylpentan-2-ol]	potent agonists	–
potent activity	Cc1cc(CC(O)(CC(C)(C)c2ccc(F)cc2)C(F)(F)F)cc(C)n1 (stereo not shown) [2-(2,6-Dimethylpyridin-4-ylmethyl)-1,1,1-trifluoro-4-(4-fluorophenyl)-4-methylpentan-2-ol]	potent agonists	–
